Experimental data published in patent US8431596B2 (Cancer Research Technology Limited, priority 2007, dated 2013).

Assays:
[1] = biological target: T1, AXL (human catalytic domain) (Homo sapiens, UniProt P30530); assay: AXL (human catalytic domain) Enzyme Activity Assay (IMAP fluorescence polarisation); assay type: biochemical
T1 construct: purchased Upstate Ltd. 14-512
T1 sequence (P30530 473-894): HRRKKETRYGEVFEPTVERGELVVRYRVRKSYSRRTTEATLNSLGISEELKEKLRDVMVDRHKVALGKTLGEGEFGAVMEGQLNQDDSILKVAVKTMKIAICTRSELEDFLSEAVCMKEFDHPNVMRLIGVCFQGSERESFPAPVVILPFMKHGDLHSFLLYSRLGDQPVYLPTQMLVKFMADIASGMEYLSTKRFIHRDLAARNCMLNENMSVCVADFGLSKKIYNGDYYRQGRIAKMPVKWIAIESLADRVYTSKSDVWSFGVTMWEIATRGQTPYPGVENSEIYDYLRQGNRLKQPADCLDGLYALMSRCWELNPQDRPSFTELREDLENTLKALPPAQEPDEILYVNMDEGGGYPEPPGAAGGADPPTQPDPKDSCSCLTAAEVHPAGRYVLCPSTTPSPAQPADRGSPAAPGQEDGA
Summary of the method: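 IMAP FP readout (Ex485/Em535, after overnight binding) measured inhibition of the human AXL catalytic domain (aa473-894, 15 nM final) acting on 100 nM 5FAM-CSK-tide at 150 μM ATP, equal to KM. Reactions ran 60 min at room temperature in pH 7.0 HEPES buffer; IC50 from 10-point curves.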

[2] = test system: Axl activation via the downstream phosphorylation of Akt (serine 473); assay: AXL Inhibition Cell Based ELISA Assay (FACE kit, Gas6-stimulated MDA-MB-231 cells); settings: Homo sapiens, first data set, Gas6 200 ng/ml, pS473 Akt
Description: AXL Inhibition Cell Based ELISA Assay
This cell based ELISA assay is a simple cell-based method used to monitor activation of proteins by phosphorylation. The Active Motif, Fast Activated Cell-based ELISA (FACE) kit (Active Motif Cat No: 48120) was used in this case to monitor the inhibition, by test compounds, of Axl activation via the downstream phosphorylation of Akt (serine 473). In this system, cells are cultured in 96 well plates and treated with test compounds and Axl is activated by the introduction of Gas6 (Axl ligand). The inhibition of Axl can be directly assessed via the reduction of pS^473 Akt levels.
Active Motif FACE Kit reagents (Active Motif Cat. No: 48120(AKT)).
10% hydrogen peroxide (Sigma H1009).
10% Sodium azide (Sigma 7128).
37% Formaldehyde (Sigma F8775).
Axl/Fc conjugate (R&D Systems 154-AL).
Recombinant mouse Gas6 (R&D Systems 986-GS-025).
All cell incubations were carried out in humidified incubators set at 5% CO2 and 37° C. […]
Immunostaining (carried out as outlined in FACE kit protocol). […] 100 μL developing solution was added to each well and monitored for colour change to medium to dark blue (2 to 20 minutes). 100 μL of stop solution was then added and absorbance was read at 450 nm within 5 minutes of addition.
Crystal Violet cell staining. After reading absorbance at 450 nm, the plates were washed twice with 200 μL wash buffer and twice with 200 μL PBS. […]

[3] = first data set, recombinant AXL isoform 1 aa473-894, 150 μM ATP
[4] = further data set (WW-001 through WW-169, XX-001 through XX-469, YY-001 through YY-016, ZZ-001 through ZZ-003), 150 μM ATP

Row | Compound | IC50 [1, 3] | IC50 [1, 4] | IC50 [2]
1 | CN1CCOc2cc(-c3cccc4nc(NC(=O)C5CC5)nn34)ccc21 [WW-104] | < 1 µM | 0.1 to 1 µM | 8.49 µM
2 | CCNCCOc1ccc(Nc2nc3cccc(-c4ccc5c(c4)OCCO5)n3n2)cc1 [XX-070] | < 1 µM | ≤ 0.1 µM | 1.03 µM
3 | O=C(Nc1nc2ccnc(-c3ccc4c(c3)OCCO4)n2n1)C1CC1 [ZZ-001, Cyclopropanecarboxylic acid [5-(2,3-dihydro-benzo[1,4]dioxin-6-yl)-[1,2,4]triazolo[1,5-c]pyrimidin-2-yl]-amide] | 0.364 µM | 0.1 to 1 µM | 
4 | CCOc1ccc(-c2nccc3nc(NC(=O)C4CC4)nn23)cc1 [ZZ-002] |  | 0.1 to 1 µM | 
5 | COc1ccc(-c2nccc3nc(NC(=O)C4CC4)nn23)cc1 [ZZ-003] |  | 1 to 10 µM | 
